In brackets after ≈: the same amount, converted by molar mass.

The test system of one data set is RAW 264.7 cells. The settings on record: RAW 264.7 cell line, MTT assay, 50 μg mL^−1, 48 h incubation. (In general: Tetrazolium assays rely on reduction of a dye to a coloured formazan, in cell work by metabolically active cells.)
Data set [1] relates to Mycobacterium tuberculosis H37Rv. Description: In vitro MTB Microplate Alamar Blue Assay. In kind it is cell-based. (The colour change of resazurin is a common sign of viable cells or microbes.)
The mark [2] stands for this setting: Mycobacterium tuberculosis, H37RV, M. tuberculosis H37Rv, MABA, average of duplicates.
[3] abbreviates: against MTB, in vitro (conclusion).
The mark [4] stands for this setting: Mycobacterium tuberculosis, H37RV, 168 h, M. tuberculosis H37Rv, MABA, average of duplicates.
Setting [5] is: M. tuberculosis H37Rv, MABA, average of duplicates.

As to `Cc1ccc2c(c1)C=CC1(CCc3c(nnn3-c3ccccc3)C1)O2` (centres unmarked) [Compound 7a, 6′-Methyl-1-phenyl-1,4,6,7-tetrahydrospiro[benzo[d][1,2,3]triazole-5,2′-chromene]], the “Cytotoxicity in % inhibition at 50 μg mL^−1” value (“Cytotoxicity in % inhibition” for short) in the data set with RAW 264.7 cells came out at 30.23%. In addition, the MIC was 4.74 µM (≈ 1.56 µg/mL) in data set [1] (setting [2]) and 1.56 µg in data set [1] (setting [3]).

For `Cc1ccc(-n2nnc3c2CCC2(C=Cc4cc(C)ccc4O2)C3)cc1` (centres unmarked) [Compound 7b, 6′-Methyl-1-(p-tolyl)-1,4,6,7-tetrahydrospiro[benzo[d][1,2,3]triazole-5,2′-chromene]], the MIC in data set [1] (setting [4]) turned out to be 75.8 µM (≈ 26 µg/mL). Compound `Cc1ccc2c(c1)C=CC1(CCc3c(nnn3-c3ccc(Cl)cc3)C1)O2` (centres unmarked) [Compound 7c, 1-(4-Chlorophenyl)-6′-methyl-1,4,6,7-tetrahydrospiro[benzo[d][1,2,3]triazole-5,2′-chromene]] showed an MIC in data set [1] (setting [2]) of 34.4 µM (≈ 12.5 µg/mL). As to `COc1ccc(-n2nnc3c2CCC2(C=Cc4cc(C)ccc4O2)C3)cc1` (centres unmarked) [Compound 7d, 1-(4-Methoxyphenyl)-6′-methyl-1,4,6,7-tetrahydrospiro[benzo[d][1,2,3]triazole-5,2′-chromene]], the “Cytotoxicity in % inhibition” value with RAW 264.7 cells was 33.14%. Further, the results for the MIC in data set [1] (setting [2]) and in data set [1] (setting [3]) were 4.34 µM (≈ 1.56 µg/mL) and 1.56 µg, respectively. For the compound `Cc1ccc2c(c1)C=CC1(CCc3c(nnn3Cc3ccccc3)C1)O2` (centres unmarked) [Compound 7e, 1-Benzyl-6′-methyl-1,4,6,7-tetrahydrospiro[benzo[d][1,2,3]triazole-5,2′-chromene]], the MIC in data set [1] (setting [4]) turned out to be 75.8 µM (≈ 26 µg/mL).

`Clc1ccc2c(c1)C=CC1(CCc3c(nnn3-c3ccccc3)C1)O2` (centres unmarked) [Compound 7f, 6′-Chloro-1-phenyl-1,4,6,7-tetrahydrospiro[benzo[d][1,2,3]triazole-5,2′-chromene]]: the “Cytotoxicity in % inhibition” value with RAW 264.7 cells is reported as 21.41%. This compound also came in with an MIC in data set [1] (setting [2]) of 17.9 µM (≈ 6.26 µg/mL). `Cc1ccc(-n2nnc3c2CCC2(C=Cc4cc(Cl)ccc4O2)C3)cc1` (centres unmarked) [Compound 7g, 6′-Chloro-1-(p-tolyl)-1,4,6,7-tetrahydrospiro[benzo[d][1,2,3]triazole-5,2′-chromene]] registered an MIC in data set [1] (setting [2]) of 68.9 µM (≈ 25.1 µg/mL). Still for that read-out and setting: the result for `Clc1ccc(-n2nnc3c2CCC2(C=Cc4cc(Cl)ccc4O2)C3)cc1` (centres unmarked) [Compound 7h, 6′-Chloro-1-(4-chlorophenyl)-1,4,6,7-tetrahydrospiro[benzo[d][1,2,3]triazole-5,2′-chromene]] reads 65.3 µM (≈ 25.1 µg/mL). As to `COc1ccc(-n2nnc3c2CCC2(C=Cc4cc(Cl)ccc4O2)C3)cc1` (centres unmarked) [Compound 7i, 6′-Chloro-1-(4-methoxyphenyl)-1,4,6,7-tetrahydrospiro[benzo[d][1,2,3]triazole-5,2′-chromene]], the “Cytotoxicity in % inhibition” value in the data set with RAW 264.7 cells is given as 29.36%. Besides, the figures for the MIC in data set [1] (setting [2]) and in data set [1] (setting [3]) were 4.11 µM (≈ 1.56 µg/mL) and 1.56 µg, respectively. The compound `Clc1ccc2c(c1)C=CC1(CCc3c(nnn3Cc3ccccc3)C1)O2` (centres unmarked) [Compound 7j, 1-Benzyl-6′-chloro-1,4,6,7-tetrahydrospiro[benzo[d][1,2,3]triazole-5,2′-chromene]] gave an MIC in data set [1] (setting [2]) of 34.4 µM (≈ 12.5 µg/mL). On to `Cc1cc2c(cc1Cl)C=CC1(CCc3c(nnn3-c3ccccc3)C1)O2` (centres unmarked) [Compound 7k, 6′-Chloro-7′-methyl-1-phenyl-1,4,6,7-tetrahydrospiro[benzo[d][1,2,3]triazole-5,2′-chromene]], for which, in the data set on RAW 264.7 cells, the “Cytotoxicity in % inhibition” value is 24.90%. Moreover, the MIC in data set [1] (setting [5]) worked out at 8.60 µM (≈ 3.13 µg/mL); in data set [1] (setting [2]) it was 8.6 µM (≈ 3.13 µg/mL). `Cc1ccc(-n2nnc3c2CCC2(C=Cc4cc(Cl)c(C)cc4O2)C3)cc1` (centres unmarked) [Compound 7l, 6′-Chloro-7′-methyl-1-(p-tolyl)-1,4,6,7-tetrahydrospiro[benzo[d][1,2,3]triazole-5,2′-chromene]] registered an MIC in data set [1] (setting [4]) of 69 µM (≈ 26.1 µg/mL). Regarding `Cc1cc2c(cc1Cl)C=CC1(CCc3c(nnn3-c3ccc(Cl)cc3)C1)O2` (centres unmarked) [Compound 7m, 6′-Chloro-1-(4-chlorophenyl)-7′-methyl-1,4,6,7-tetrahydrospiro[benzo[d][1,2,3]triazole-5,2′-chromene]], the “Cytotoxicity in % inhibition” value in the data set with RAW 264.7 cells came out at 24.76%. Besides, the MIC in data set [1] (setting [5]) worked out at 7.87 µM (≈ 3.13 µg/mL); in data set [1] (setting [2]), 7.67 µM (≈ 3.05 µg/mL).

For the compound `COc1ccc(-n2nnc3c2CCC2(C=Cc4cc(Cl)c(C)cc4O2)C3)cc1` (centres unmarked) [Compound 7n, 6′-Chloro-1-(4-methoxyphenyl)-7′-methyl-1,4,6,7-tetrahydrospiro[benzo[d][1,2,3]triazole-5,2′-chromene]], the “Cytotoxicity in % inhibition” value with RAW 264.7 cells came to 22.64%. In data set [1] (setting [2]), this compound returned an MIC of 15.9 µM (≈ 6.26 µg/mL). `Cc1cc2c(cc1Cl)C=CC1(CCc3c(nnn3Cc3ccccc3)C1)O2` (centres unmarked) [Compound 7o, 1-Benzyl-6′-chloro-7′-methyl-1,4,6,7-tetrahydrospiro[benzo[d][1,2,3]triazole-5,2′-chromene]] displayed an MIC in data set [1] (setting [2]) of 66.3 µM (≈ 25.1 µg/mL). On the same count and under the same terms, the result for `CC[C@@H](CO)NCCN[C@@H](CC)CO` [Ethambutol, reference compound] reads 7.64 µM (≈ 1.56 µg/mL); that for `NNC(=O)c1ccncc1` [Isoniazid, reference compound], 0.437 µM (≈ 0.0599 µg/mL). Turning to `CO[C@H]1/C=C/O[C@@]2(C)Oc3c(C)c(O)c4c(O)c(c(/C=N/N5CCN(C)CC5)c(O)c4c3C2=O)NC(=O)/C(C)=C\C=C\[C@H](C)[C@H](O)[C@@H](C)[C@@H](O)[C@@H](C)[C@H](OC(C)=O)[C@@H]1C` [Rifampicin, reference compound], the MIC was 0.50 µM (≈ 0.411 µg/mL) in data set [1] (setting [5]) and 0.5 µM (≈ 0.411 µg/mL) in data set [1] (setting [2]). `NC(=O)c1cnccn1` [pyrazinamide, reference compound]: the MIC in data set [1] (setting [2]) worked out at 50.8 µM (≈ 6.25 µg/mL).

The values above are taken from paper PMC9080333 (RSC Advances, 2018).
